Patent US10745454B2, “Method of synthesizing antagonist peptides for cell growth” (priority 2018, dated 2020)
Blank lines part the entries; values can stand above or below the molecule they belong to.

Key:
adipose tissue = conditions: mice; cited from earlier work
[1] = tested on: PI3K/AKT and MAPK/ERK1/2 pathways; experiment: Quantitative Western blot of PI3K/AKT and MAPK/ERK1/2 activation in 4T1 tumor extracts; format: in vivo, murine
Description: In vivo Tumor Growth Regression-Animal studies are conducted according to relevant national and international guidelines of the Weatherall report and Institutional Animal Care and Use Committee (IACUC) of Tehran University of Medical Sciences. The tumors induced in the female BALB/c mice (5 weeks old) are purchased from the Laboratory Animal Center of Iran Pasteur Institute and maintained under 12 h dark and light cycle. The 4T1 tumor model mouse are sterilized and established from the breast cancer bearing BALB/c mice by a standard protocol. The 4T1 tumor model mouse are prepared by cutting the tumor into pieces of <0.3 cm3. The tumor pieces are subcutaneously transplanted into the left flank of the mouse under ketamine (100 mg/kg, i.p.) and xylazine (10 mg/kg, i.p.) anesthesia. The mouse carrying tumors with a tumor size reaching to 400 mm3 are randomized and divided into groups. Each group of tumor induced mice comprises 6 mouse. The first group is treated with vascular endothelial growth factor (VEGF). The second group is treated with phosphate buffer saline. The first group or treated groups receives daily 1, 2.5 and 10 mg/kg i.p. of VEGF-antagonistic peptides compared to PBS control group for two weeks. The tumor volume is measured every two days by a digital Vernier caliper (Mitutoyo, japan), using the following formula: v=a2×b×0.52 (where “a” is the shortest and “b” is the longest diameter).
The tumor tissues from control and peptide-treated (cultured cells or mice) are lysed with RIPA lysis buffer. […] Protein concentrations are assessed by Bradford assay. […]
The premium nitrocellulose western blotting membranes are washed with TBST and incubated with horseradish peroxidase-conjugated goat anti-mouse IgG secondary antibody. […] The quantitative analysis of protein expression to the reference protein, repeated at least three times, is performed using ImageJ. […]

bFGFR-1 (receptor) = target: T1, bFGFR-1 (receptor) (Homo sapiens, UniProt P11362); experiment: Competitive binding assay with bFGFR-1 in HUVECs (immunofluorescence); conditions: peptide 1000-2000 ng/ml overnight
T1 construct: with bFGFR-1 (receptor) in Human Umbilical Vein Endothelial Cells (HUVECs); endogenous in cells; host or cells: HUVEC (Human Umbilical Vein Endothelial Cells)
T1 sequence (P11362 22-822): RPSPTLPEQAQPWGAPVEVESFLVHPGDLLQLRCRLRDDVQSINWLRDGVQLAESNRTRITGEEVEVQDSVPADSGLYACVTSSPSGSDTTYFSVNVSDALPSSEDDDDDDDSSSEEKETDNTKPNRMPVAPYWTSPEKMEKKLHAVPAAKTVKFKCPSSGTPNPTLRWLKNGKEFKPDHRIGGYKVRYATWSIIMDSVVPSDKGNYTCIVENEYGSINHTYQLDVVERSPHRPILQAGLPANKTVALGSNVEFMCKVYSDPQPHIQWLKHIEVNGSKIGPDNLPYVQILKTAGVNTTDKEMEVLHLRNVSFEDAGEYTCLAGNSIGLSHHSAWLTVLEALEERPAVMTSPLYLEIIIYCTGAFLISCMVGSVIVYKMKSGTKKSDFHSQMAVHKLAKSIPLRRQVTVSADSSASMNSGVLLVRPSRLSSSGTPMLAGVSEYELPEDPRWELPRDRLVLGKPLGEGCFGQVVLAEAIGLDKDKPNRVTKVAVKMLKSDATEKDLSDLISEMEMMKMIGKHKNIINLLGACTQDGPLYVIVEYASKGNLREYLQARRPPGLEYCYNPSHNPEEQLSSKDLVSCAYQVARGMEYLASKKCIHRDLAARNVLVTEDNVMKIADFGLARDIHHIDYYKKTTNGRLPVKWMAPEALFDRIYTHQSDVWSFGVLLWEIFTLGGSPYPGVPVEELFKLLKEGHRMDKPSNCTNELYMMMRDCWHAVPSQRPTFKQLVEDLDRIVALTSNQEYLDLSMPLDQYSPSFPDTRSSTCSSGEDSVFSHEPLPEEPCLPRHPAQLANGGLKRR
Description: Binding Assay—To assess competitive binding assay of bFGF antagonist, Human Umbilical Vein Endothelial Cells(HUVECs) are cultured in 96-well plates (5000 cells/well) with DMEM and 5% fetal bovine serum (FBS) incubated at 37° C. for overnight. After 24 h, the media in the 96-well plates is changed with DMEM without FBS and the cells are treated (except the control 96-well plates) with 1000-2000 ng/ml the peptides at 37° C. for overnight. The cells are fixed by 4% paraformaldehyde at room temperature for 5-10 min. After 5-10 minutes the cells are rinsed with phosphate buffer saline (PBS), permeabilized with PBS+0.3% Triton X-100. The […] with a mixture comprising 10% normal goat serum, bovine serum albumin (BSA) 1% PBST for 20 minutes in the room temperature. After 20 minutes the cells are subjected to anti-FGFR-1 (5000 ng/ml, Ab10646) with FITC-secondary (Ab6717) antibody and stained with propidium iodide (Sigma Aldrich, USA, P4170) (1 μg/ml) for nuclear staining. The cell-binding is analyzed by NIH Image J software.

4T1 tumor = experiment: Histopathological staining of angiogenesis markers CD31 and CD34 in 4T1 tumors of treated mice; format: in vivo, BALB/c mice; conditions: 4T1 tumor tissue; i.p. daily, two weeks
Description: In vivo Tumor Growth Regression-Animal studies are conducted according to relevant national and international guidelines of the Weatherall report and Institutional Animal Care and Use Committee (IACUC) of Tehran University of Medical Sciences. The tumors induced in the female BALB/c mice (5 weeks old) are purchased from the Laboratory Animal Center of Iran Pasteur Institute and maintained under 12 h dark and light cycle. The 4T1 tumor model mouse are sterilized and established from the breast cancer bearing BALB/c mice by a standard protocol. The 4T1 tumor model mouse are prepared by cutting the tumor into pieces of <0.3 cm3. […] The tumor volume is measured every two days by a digital Vernier caliper (Mitutoyo, japan), using the following formula: v=a2×b×0.52 (where “a” is the shortest and “b” is the longest diameter).
Histopathological analyses—The excised tumor tissues are fixed in formalin (4%), embedded in paraffin, sectioned and stained against CD31, CD34, Ki-67, P53, Bcl-2 and TUNEL. […] To count microvessels of the murine breast cancer tissue, the 5 randomly selected vascularized areas are counted under scale bar 100 and 20 μm. The microvascular density (MVD) of the tumor is measured and evaluated by the standard protocol. The microvessels are manually counted on the images at scale bar of 20 μm. […]

HUVECs = experiment: Matrigel tube formation assay, bFGF antagonist; format: cell-based, human; conditions: peptide 2000 ng/ml
[2] = tested on: ovarian cancer cell line SKOV3; experiment: bFGF-induced SKOV3 proliferation assay (MTT); format: cell-based, human; conditions: for bFGF-induced proliferation of SKOV3: hr-bFGF, peptide 25-1000 ng/ml, 5-6 days
Description: Cell Proliferation Assay—To analyze the ability of basic fibroblast growth factor (bFGF) antagonist peptide to inhibit the bFGF-induced cell proliferation, the ovarian cell line SKOV3 is utilized. The SKOV3 cell line is found to be dependent on bFGF for cellular proliferation. For cell culture, SKOV3 cells are maintained in DMEM supplemented with 5% FBS, 1% streptomycin, penicillin, […] glutamine and is mycoplasma free.
For estimating the anti-proliferative activity of bFGF, SKOV3 is plated at 1×10^4 cell per well in a 24 well dish in 1 ml DMEM, the cells are maintained in DMEM and treated with human recombinant bFGF (hr-bFGF) (0-100 ng/ml) alone and in combination with different concentration of the antagonistic peptide (25-1000 ng/ml) every other day for total 5-6 days. The experiment is terminated when cells are in confluence. The MTT assay is performed. The absorbance is determined at 540 nm. The results are expressed as the mean of triplicate experiments (+SD). One-way analysis of variance is used to determine significance.

endothelial cell = conditions: Alzheimer's disease context; cited from earlier work
[3] = 4T1 mammary carcinoma tumor tissues
[4] = listed as bFGF antagonistic peptide

Molecule: CO[C@@H]1[C@H](OC(=O)NC(=O)CCl)CC[C@]2(CO2)[C@H]1[C@@]1(C)O[C@@H]1CC=C(C)C [TNP-470]
- diet-induced and genetic obesity (adipose tissue): able to prevent
- vascularity in the adipose tissue (adipose tissue): reduced

- binding to bFGFR-1 (bFGFR-1 (receptor)): recognizes bFGFR
- binding to bFGFR-1 (bFGFR-1 (receptor); [4]): recognizes and binds
Molecule: 2HN-Leu119-Lys120-Arg121-Thr122-Gly123-Gln124-Tyr125-Lys126-Leu127-COOH (H-LKRTGQYKL-OH; listed as Homo sapiens) [Seq. ID No. 5, antagonist of bFGF, residues 119-127 of bFGF]
- AKT phosphorylation [1, 3]: able to block
- ERK1/2 phosphorylation [1, 3]: able to block
- difference in p-AKT or p-ERK inhibition levels between dosages ([1]; dosages 1 and 10 mg/kg): no significant difference
- anti-angiogenic effect, staining of angiogenesis marker CD31 (4T1 tumor): inhibits the angiogenesis
- anti-angiogenic effect, staining of angiogenesis marker CD34 (4T1 tumor): inhibits the angiogenesis
- anti-angiogenic activity, Matrigel assay (HUVECs): inhibits the angiogenesis process
- bFGF-induced proliferation of SKOV3 [2]: suppressing bFGF-induced proliferation
- bFGF-induced proliferation of SKOV3 ([2]; listed as bFGF antagonist peptide): inhibits the bFGF-induced proliferation of ovarian cancer cell line SKOV3 in a dose-dependent manner
- bFGF-induced proliferation of SKOV3 [2, 4]: inhibit the proliferation
- SKOV3 cell proliferation at 400 ng/ml peptide ([2]; peptide 400 ng/ml): reduced

Molecule: CN(C)c1ccc(/C=C2\C(=O)Nc3ccccc32)cc1 [SU 4312]
- vessel formation (endothelial cell): could be blocked
